Type in all cases: functional
For test [1], the system named is Mycobacterium tuberculosis. Nature of the test: Antitubercular activity against Mycobacterium tuberculosis infected in mouse assessed as reduction in microbial load at 2 to 3 mg ip, pretreated for 48 to 72 hrs followed by microbial infection and subsequent compound dosing at 48 to 72 hrs post-infection measured 24 to 32 days post-infection relative to control. Further details: scale not given: the % may be the effect or the level left.

For test [2], the system named is Mycolicibacterium smegmatis. The experiment in a line: Antimycobacterial activity against DDS sensitive Mycobacterium smegmatis ATCC 607 […].
The test system of test [3] is Mycolicibacterium smegmatis. Nature of the test: Antimycobacterial activity against DDS resistant Mycobacterium smegmatis ATCC 607 […].
In test [4] the test system is Mycolicibacterium smegmatis. Nature of the test: Antimicrobial activity against Mycobacterium smegmatis ATCC 607.
Setting [5] is: Mycolicibacterium smegmatis, ATCC 607, read-out: MIC.

Among the data in ChEMBL document CHEMBL4613212, “Insights of synthetic analogues of anti-leprosy agents” (Bioorg Med Chem, 2019) are Activity and MIC values, retold here.

Converted amounts (≈) assume the structure as drawn. The source made the active and inactive calls. Some results are limits rather than exact numbers.

In the case of `OCCOCCOCCOCCOCCOCCOCCOCCOCCOCCOCCOCCOc1c2cc(-c3ccccc3)cc1Cc1cc(-c3ccccc3)cc(c1OCCOCCOCCOCCOCCOCCOCCOCCOCCOCCOCCOCCO)Cc1cc(-c3ccccc3)cc(c1OCCOCCOCCOCCOCCOCCOCCOCCOCCOCCOCCOCCO)Cc1cc(-c3ccccc3)cc(c1OCCOCCOCCOCCOCCOCCOCCOCCOCCOCCOCCOCCO)Cc1cc(-c3ccccc3)cc(c1OCCOCCOCCOCCOCCOCCOCCOCCOCCOCCOCCOCCO)Cc1cc(-c3ccccc3)cc(c1OCCOCCOCCOCCOCCOCCOCCOCCOCCOCCOCCOCCO)Cc1cc(-c3ccccc3)cc(c1OCCOCCOCCOCCOCCOCCOCCOCCOCCOCCOCCOCCO)C2`, the Activity in test [1] is on record as 80 - 100%.
`Oc1c2cc(-c3ccccc3)cc1Cc1cc(-c3ccccc3)cc(c1O)Cc1cc(-c3ccccc3)cc(c1O)Cc1cc(-c3ccccc3)cc(c1O)Cc1cc(-c3ccccc3)cc(c1O)Cc1cc(-c3ccccc3)cc(c1O)Cc1cc(-c3ccccc3)cc(c1O)C2`: the Activity in test [1] is reported as 20 - 50%.
As for `CCCCCNc1ccc(S(=O)(=O)c2ccc(N)cc2)cc1`, the MIC in test [2] was 377 µg/mL (≈ 1180 µM); in test [3], above 500 µg/mL.
On to `CC(C)(C)c1cc2c(O)c(c1)Cc1cc(C(C)(C)C)cc(c1O)Cc1cc(C(C)(C)C)cc(c1O)Cc1cc(C(C)(C)C)cc(c1O)Cc1cc(C(C)(C)C)cc(c1O)Cc1cc(C(C)(C)C)cc(c1O)C2`, for which the outcome in test [1] was inactive.
Consider `Oc1c2cc(-c3ccccc3)cc1Cc1cc(-c3ccccc3)cc(c1O)Cc1cc(-c3ccccc3)cc(c1O)Cc1cc(-c3ccccc3)cc(c1O)Cc1cc(-c3ccccc3)cc(c1O)Cc1cc(-c3ccccc3)cc(c1O)Cc1cc(-c3ccccc3)cc(c1O)Cc1cc(-c3ccccc3)cc(c1O)C2`, for which the Activity in test [1] is listed as 20 - 50%.
Regarding `CC(C)(C)c1cc2c(O)c(c1)Cc1cc(C(C)(C)C)cc(c1OCCOCCOCCOCCOCCOCCO)Cc1cc(C(C)(C)C)cc(c1O)Cc1cc(C(C)(C)C)cc(c1OCCOCCOCCOCCOCCOCCO)Cc1cc(C(C)(C)C)cc(c1O)Cc1cc(C(C)(C)C)cc(c1OCCOCCOCCOCCOCCOCCO)Cc1cc(C(C)(C)C)cc(c1O)Cc1cc(C(C)(C)C)cc(c1OCCOCCOCCOCCOCCOCCO)C2`, the Activity in test [1] was 20 - 50%.
With `Nc1ccc(S(=O)(=O)c2ccc(NO)cc2)cc1` [4-AMINO-4'-HYDROXAMINE-DIPHENYLSULPHONE], the minimal inhibitory concentration (MIC) in test [2] amounted to 18.1 µg/mL (≈ 68.5 µM); in test [3], 3000 µg/mL (≈ 11400 µM).
Take `OCCOCCOCCOCCOCCOCCOc1c2cc(-c3ccccc3)cc1Cc1cc(-c3ccccc3)cc(c1OCCOCCOCCOCCOCCOCCO)Cc1cc(-c3ccccc3)cc(c1OCCOCCOCCOCCOCCOCCO)Cc1cc(-c3ccccc3)cc(c1OCCOCCOCCOCCOCCOCCO)Cc1cc(-c3ccccc3)cc(c1OCCOCCOCCOCCOCCOCCO)Cc1cc(-c3ccccc3)cc(c1OCCOCCOCCOCCOCCOCCO)Cc1cc(-c3ccccc3)cc(c1OCCOCCOCCOCCOCCOCCO)C2`: the Activity in test [1] is 20 - 50%.
Regarding `CCCCNc1ccc(S(=O)(=O)c2ccc(N)cc2)cc1`, the figures for the MIC in test [2] and in test [3] were 110 µg/mL (≈ 361 µM) and above 650 µg/mL, respectively.
Regarding `CC(C)(C)c1cc2c(O)c(c1)Cc1cc(C(C)(C)C)cc(c1O)Cc1cc(C(C)(C)C)cc(c1O)Cc1cc(C(C)(C)C)cc(c1O)C2`, the outcome in test [1] was inactive.
Still for that read-out and setting: the value for `CC(C)(C)c1cc2c(OCCOCCOCCOCCOCCOCCO)c(c1)Cc1cc(C(C)(C)C)cc(c1OCCOCCOCCOCCOCCOCCO)Cc1cc(C(C)(C)C)cc(c1OCCOCCOCCOCCOCCOCCO)Cc1cc(C(C)(C)C)cc(c1OCCOCCOCCOCCOCCOCCO)Cc1cc(C(C)(C)C)cc(c1OCCOCCOCCOCCOCCOCCO)Cc1cc(C(C)(C)C)cc(c1OCCOCCOCCOCCOCCOCCO)Cc1cc(C(C)(C)C)cc(c1OCCOCCOCCOCCOCCOCCO)Cc1cc(C(C)(C)C)cc(c1OCCOCCOCCOCCOCCOCCO)C2` was 80 - 100%; that for `CC(C)(C)c1cc2c(OCCOCCOCCOCCOCCOCCOCCOCCOCCOCCOCCOCCO)c(c1)Cc1cc(C(C)(C)C)cc(c1OCCOCCOCCOCCOCCOCCOCCOCCOCCOCCOCCOCCO)Cc1cc(C(C)(C)C)cc(c1OCCOCCOCCOCCOCCOCCOCCOCCOCCOCCOCCOCCO)Cc1cc(C(C)(C)C)cc(c1OCCOCCOCCOCCOCCOCCOCCOCCOCCOCCOCCOCCO)Cc1cc(C(C)(C)C)cc(c1OCCOCCOCCOCCOCCOCCOCCOCCOCCOCCOCCOCCO)Cc1cc(C(C)(C)C)cc(c1OCCOCCOCCOCCOCCOCCOCCOCCOCCOCCOCCOCCO)Cc1cc(C(C)(C)C)cc(c1OCCOCCOCCOCCOCCOCCOCCOCCOCCOCCOCCOCCO)Cc1cc(C(C)(C)C)cc(c1OCCOCCOCCOCCOCCOCCOCCOCCOCCOCCOCCOCCO)C2` was 50 - 100%.
On to `COC(=O)CNc1ccc(S(=O)(=O)c2ccc(N)cc2)cc1`, for which the values for the minimal inhibitory concentration (MIC) in test [2] and in test [3] were 32.8 µg/mL (≈ 102 µM) and above 800 µg/mL, respectively.
As to `CC(C)(C)c1cc2c(O)c(c1)Cc1cc(C(C)(C)C)cc(c1OCCOCCOCCOCCOCCOCCOCCOCCOCCOCCOCCOCCO)Cc1cc(C(C)(C)C)cc(c1O)Cc1cc(C(C)(C)C)cc(c1OCCOCCOCCOCCOCCOCCOCCOCCOCCOCCOCCOCCO)Cc1cc(C(C)(C)C)cc(c1O)Cc1cc(C(C)(C)C)cc(c1OCCOCCOCCOCCOCCOCCOCCOCCOCCOCCOCCOCCO)Cc1cc(C(C)(C)C)cc(c1O)Cc1cc(C(C)(C)C)cc(c1OCCOCCOCCOCCOCCOCCOCCOCCOCCOCCOCCOCCO)C2`, the Activity in test [1] is recorded as 20 - 50%.
On to `CCCNc1ccc(S(=O)(=O)c2ccc(N)cc2)cc1`, for which the MIC in test [2] is 34.4 µg/mL (≈ 118 µM); in test [3], above 1200 µg/mL.
Compound `O.O.OC[C@H]1O[C@@H](n2cnc3c(-c4cccs4)ncnc32)[C@H](O)[C@@H]1O` returned an MIC in test [4] of 4 nmol/mL.
As to `Nc1ccc(S(=O)(=O)c2ccc(Cl)cc2)cc1`, the MIC is 432 µg/mL (≈ 1610 µM) in test [2] and above 600 µg/mL in test [3].
The matching figures for `Nc1ccc(S(=O)(=O)c2ccc(NC=O)cc2)cc1`: 120 µg/mL (≈ 434 µM) and above 400 µg/mL.
In the case of `Nc1ccc(S(=O)(=O)c2ccc(NCCO)cc2)cc1`, the figures for the MIC in test [2] and in test [3] were 13.7 µg/mL (≈ 46.9 µM) and 2500 µg/mL (≈ 8550 µM), respectively.
As for `Nc1ccc(S(=O)(=O)c2ccc(F)cc2)cc1`, the minimum inhibitory concentration (MIC) in test [2] was 95 µg/mL (≈ 378 µM); in test [3], above 1800 µg/mL.
For `CC(C)(C)c1cc2c(OCCOCCOCCOCCOCCOCCO)c(c1)Cc1cc(C(C)(C)C)cc(c1OCCOCCOCCOCCOCCOCCO)Cc1cc(C(C)(C)C)cc(c1OCCOCCOCCOCCOCCOCCO)Cc1cc(C(C)(C)C)cc(c1OCCOCCOCCOCCOCCOCCO)Cc1cc(C(C)(C)C)cc(c1OCCOCCOCCOCCOCCOCCO)Cc1cc(C(C)(C)C)cc(c1OCCOCCOCCOCCOCCOCCO)C2`, the Activity in test [1] is listed as 80 - 100%.
On the same count and under the same terms, the value for `CC(C)(C)c1cc2c(O)c(c1)Cc1cc(C(C)(C)C)cc(c1O)Cc1cc(C(C)(C)C)cc(c1O)Cc1cc(C(C)(C)C)cc(c1O)Cc1cc(C(C)(C)C)cc(c1O)Cc1cc(C(C)(C)C)cc(c1O)Cc1cc(C(C)(C)C)cc(c1O)Cc1cc(C(C)(C)C)cc(c1O)C2` was 20 - 50%.
Turning to `Nc1ccc(S(=O)(=O)c2ccc(NCC(=O)O)cc2)cc1` [ACEDIASULFONE], the MIC in test [2] is 261 µg/mL (≈ 853 µM); in test [3], above 2200 µg/mL.
As for `Nc1ccc(S(=O)(=O)c2ccccc2)cc1`, the figures for the minimal inhibitory concentration (MIC) in test [2] and in test [3] were 1290 µg/mL (≈ 5520 µM) and above 2580 µg/mL, respectively.
For the compound `O.OC[C@H]1O[C@@H](n2cnc3c(-c4cccs4)ncnc32)[C@H](O)[C@@H]1O`, the MIC in test [4] is 1.75 nmol/mL.
Consider `CC(C)(C)c1cc2c(O)c(c1)Cc1cc(C(C)(C)C)cc(c1OCCOCCOCCOCCOCCOCCO)Cc1cc(C(C)(C)C)cc(c1O)Cc1cc(C(C)(C)C)cc(c1OCCOCCOCCOCCOCCOCCO)Cc1cc(C(C)(C)C)cc(c1O)Cc1cc(C(C)(C)C)cc(c1OCCOCCOCCOCCOCCOCCO)C2`, for which the Activity in test [1] is listed as 20 - 50%.
Same read-out and setting: with `CCCCCCCCCCCCOc1c2cc(S(=O)(=O)O)cc1Cc1cc(S(=O)(=O)O)cc(c1OCCCCCCCCCCCC)Cc1cc(S(=O)(=O)O)cc(c1OCCCCCCCCCCCC)Cc1cc(S(=O)(=O)O)cc(c1OCCCCCCCCCCCC)Cc1cc(S(=O)(=O)O)cc(c1OCCCCCCCCCCCC)Cc1cc(S(=O)(=O)O)cc(c1OCCCCCCCCCCCC)Cc1cc(S(=O)(=O)O)cc(c1OCCCCCCCCCCCC)Cc1cc(S(=O)(=O)O)cc(c1O)C2` the figure was 50 - 80%; with `O=S(=O)(O)c1cc2c(O)c(c1)Cc1cc(S(=O)(=O)O)cc(c1O)Cc1cc(S(=O)(=O)O)cc(c1O)Cc1cc(S(=O)(=O)O)cc(c1O)Cc1cc(S(=O)(=O)O)cc(c1O)Cc1cc(S(=O)(=O)O)cc(c1O)Cc1cc(S(=O)(=O)O)cc(c1O)Cc1cc(S(=O)(=O)O)cc(c1O)C2`, 50 - 80%; with `COCCOCCOCCOc1c2cc(C(C)(C)C)cc1Cc1cc(C(C)(C)C)cc(c1OCCOCCOCCOC)Cc1cc(C(C)(C)C)cc(c1OCCOCCOCCOC)Cc1cc(C(C)(C)C)cc(c1OCCOCCOCCOC)Cc1cc(C(C)(C)C)cc(c1OCCOCCOCCOC)Cc1cc(C(C)(C)C)cc(c1OCCOCCOCCOC)Cc1cc(C(C)(C)C)cc(c1OCCOCCOCCOC)Cc1cc(C(C)(C)C)cc(c1OCCOCCOCCOC)C2`, 80 - 100%.
Turning to `CC(C)(C)CC(C)(C)c1cc2c(O)c(c1)Cc1cc(C(C)(C)CC(C)(C)C)cc(c1OCCOCCOCCOCCOCCOCCO)Cc1cc(C(C)(C)CC(C)(C)C)cc(c1O)Cc1cc(C(C)(C)CC(C)(C)C)cc(c1OCCOCCOCCOCCOCCOCCO)Cc1cc(C(C)(C)CC(C)(C)C)cc(c1O)Cc1cc(C(C)(C)CC(C)(C)C)cc(c1OCCOCCOCCOCCOCCOCCO)Cc1cc(C(C)(C)CC(C)(C)C)cc(c1O)Cc1cc(C(C)(C)CC(C)(C)C)cc(c1OCCOCCOCCOCCOCCOCCO)C2`, the Activity in test [1] was 20 - 50%.
For the compound `OC[C@H]1O[C@@H](n2nnc3c(-c4cccs4)ncnc32)[C@H](O)[C@@H]1O`, in test [4] (setting [5]), the minimal inhibitory concentration (MIC) came to 20 nmol/mL (≈ 6.71 µg/mL).
`CCCCCCNc1ccc(S(=O)(=O)c2ccc(N)cc2)cc1`: the MIC in test [2] was above 360 µg/mL; in test [3] it was above 400 µg/mL.
For `Cl.Cl.OC[C@H]1O[C@@H](n2cnc3c(-c4cccs4)ncnc32)[C@H](O)[C@@H]1O`, the minimal inhibitory concentration (MIC) in test [4] worked out at 0.7 nmol/mL.
With `OC[C@H]1O[C@@H](n2cnc3c(-c4ccns4)ncnc32)[C@H](O)[C@@H]1O`, the MIC in test [4] (setting [5]) was found to be 3 nmol/mL (≈ 1.01 µg/mL).
Turning to `Nc1ccc(S(=O)(=O)c2ccc([N+](=O)[O-])cc2)cc1`, the MIC was 34.4 µg/mL (≈ 124 µM) in test [2] and above 1200 µg/mL in test [3].
As for `Nc1ccc(S(=O)(=O)c2ccc(NCCCO)cc2)cc1`, the minimum inhibitory concentration (MIC) in test [2] was 19.6 µg/mL (≈ 64 µM); in test [3] it was above 2400 µg/mL.
In test [4], `Cl.OC[C@H]1O[C@@H](n2cnc3c(-c4cccs4)ncnc32)[C@H](O)[C@@H]1O` returned an MIC of 0.4 nmol/mL.

One may read the MIC as the smallest concentration in the dilution series that meets the test's criterion for growth inhibition.
